Source: patent US20250277012A1 (Protagonist Therapeutics, Inc., priority 2021, published 2025)
Positions of bridges follow the written chain, without caps; N, C: chain ends. Non-standard residues stand in square brackets, D forms with d. Residues, ends and D or L forms follow the SMILES beside them. Groups on a side chain read outwards from the residue. ξ: configuration not given here. *: point of attachment. CH3O(CH2CH2O)11CH2CH2CO = COCCOCCOCCOCCOCCOCCOCCOCCOCCOCCOCCOCCC(=O)*; X13 = COC(=O)CCCCCCCCCCCCCCCCC(=O)NCC[N+](C)(C)CC(=O)*; X1 = C[N+](C)(CCNC(=O)CCCCCCCCCCCCCCCCC(=O)O)CC(=O)*; X5 = CCCCCCCCCCCCCCCC(=O)NCC[N+](C)(C)CC(=O)*; C18 diacid = O=C(O)CCCCCCCCCCCCCCCCC(=O)*; Dip = N[C@H](C(=O)O)C(c1ccccc1)c1ccccc1; Pro(3S-OH) = O=C(O)[C@H]1NCC[C@@H]1O; ξDip = NC(C(=O)O)C(c1ccccc1)c1ccccc1; Palmitoyl = CCCCCCCCCCCCCCCC(=O)*; NMeF = CN[C@@H](Cc1ccccc1)C(=O)O; NMeT = CN[C@H](C(=O)O)[C@@H](C)O; 3Pal = N[C@@H](Cc1cccnc1)C(=O)O; β3hF = N[C@H](CC(=O)O)Cc1ccccc1; Aad = N[C@@H](CCCC(=O)O)C(=O)O; NMeK = CN[C@@H](CCCCN)C(=O)O; Tle = CC(C)(C)[C@H](N)C(=O)O; Isovaleryl = CC(C)CC(=O)*; NMeC = CN[C@@H](CS)C(=O)O; hSer = N[C@@H](CCO)C(=O)O; Dap = NC[C@H](N)C(=O)O; AEEA = NCCOCCOCC(=O)O; Ahx = NCCCCCC(=O)O

target: T1, ferroportin (Homo sapiens, UniProt Q9NP59); assay: T47D cell-based ferroportin internalization assay in presence of mouse serum albumin (MSA); design: a human breast carcinoma adherent cell line which endogenously expresses ferroportin; host or cells: T47D; details: T47D internalization assay in presence of mouse serum albumin (MSA); Table 6E
T1 sequence (Q9NP59 1-571): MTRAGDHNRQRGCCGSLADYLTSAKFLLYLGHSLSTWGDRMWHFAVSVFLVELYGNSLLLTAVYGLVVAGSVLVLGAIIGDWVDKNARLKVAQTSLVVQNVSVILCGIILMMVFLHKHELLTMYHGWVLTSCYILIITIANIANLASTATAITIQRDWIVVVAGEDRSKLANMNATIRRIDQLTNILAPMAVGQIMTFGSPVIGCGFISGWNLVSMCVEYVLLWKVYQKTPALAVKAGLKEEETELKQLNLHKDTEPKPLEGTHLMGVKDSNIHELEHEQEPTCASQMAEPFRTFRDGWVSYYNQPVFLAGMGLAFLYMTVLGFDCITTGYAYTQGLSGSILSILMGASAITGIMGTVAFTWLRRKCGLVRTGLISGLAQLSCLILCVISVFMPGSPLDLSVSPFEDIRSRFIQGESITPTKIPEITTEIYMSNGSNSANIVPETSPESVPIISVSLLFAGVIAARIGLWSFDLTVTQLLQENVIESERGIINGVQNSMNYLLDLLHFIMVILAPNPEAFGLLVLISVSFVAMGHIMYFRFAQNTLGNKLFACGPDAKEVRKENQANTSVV
Protocol: The potency of the peptides in causing ferroportin internalization was evaluated in a T47D cell-based assay. […] In this internalization assay, the potency of the test peptides was evaluated in presence of serum albumin which is the main protein component in the blood. T47D cells were maintained in RPMI media (containing required amount of fetal bovine serum) and regularly sub-cultured. In preparation for the assay, the cells were seeded in 96-well plates at a density of 80-100 k cells per well in 100 ul volume and allowed to rest overnight. […] Sigma, A3139). The test peptide dilution series were allowed to incubate at room temperature for 30 min. Then the media was aspirated from the 96-well cell plate and test peptide dilution series were added. […] The AF647-conjugated detection peptide was previously verified to bind to ferroportin and cause its internalization. The cells were washed again after a 2 hr incubation in preparation for flow cytometry analysis. The Median Fluorescence Intensity (MFI) of the AF647-positive population was measured (after removing dead cells and non-singlets from the analysis). The MFI values were used to generate a dose-response curve and obtain IC50 potencies for the test peptides.

| Structure (SMILES) | IC50 |
| --- | --- |
| CC(C)CC(=O)N[C@@H](CCC(=O)O)C(=O)N1CC[C@H](O)[C@H]1C(=O)N[C@@H](Cc1c[nH]cn1)C(=O)N[C@H](C(=O)N1CCC[C@H]1C(=O)N[C@H]1CSSC[C@@H](C(=O)N(C)[C@@H](CCCCNC(=O)COCCOCCNC(=O)COCCOCCNC(=O)[C@H](CN)NC(=O)CCCCCCCCCCCCCCCCC(=O)O)C(=O)N[C@H](CC(=O)N[C@H](CCCCN)C(N)=O)Cc2ccccc2)NC1=O)C(c1ccccc1)c1ccccc1 [compound 253] (Isovaleryl-E[Pro(3S-OH)]H[Dip]PCC[NMeK]([AEEA-AEEA-Dap-C18 diacid])[β3hF][dK]-NH2; disulfide 6-7) | 10 to 100 nM |
| CC(C)CC(=O)N[C@@H](CCCC(=O)O)C(=O)N[C@H](C(=O)N[C@@H](Cc1cccnc1)C(=O)N[C@H](C(=O)N1CCC[C@H]1C(=O)N[C@H]1CSSC[C@@H](C(=O)N(C)[C@@H](CCCCNC(=O)COCCOCCNC(=O)COCCOCCNC(=O)[C@H](CN)NC(=O)CCCCCCCCCCCCCCCCC(=O)O)C(=O)N[C@H](CC(=O)N[C@H](CCCCN)C(N)=O)Cc2ccccc2)NC1=O)C(c1ccccc1)c1ccccc1)[C@@H](C)O [compound 246] (Isovaleryl-[Aad]T[3Pal][Dip]PCC[NMeK]([AEEA-AEEA-Dap-C18 diacid])[β3hF][dK]-NH2; disulfide 6-7) | 10 to 100 nM |
| COC(=O)CC[C@H](NC(=O)CC(C)C)C(=O)N[C@H](C(=O)N[C@@H](Cc1c[nH]cn1)C(=O)N[C@H](C(=O)N1CCC[C@H]1C(=O)N[C@H]1CSSC[C@@H](C(=O)N[C@@H](CCCCNC(=O)CCCCCNC(=O)C[N+](C)(C)CCNC(=O)CCCCCCCCCCCCCCCCC(=O)O)C(=O)N[C@H](CC(=O)N[C@H](CCCCN)C(N)=O)Cc2ccccc2)NC1=O)C(c1ccccc1)c1ccccc1)[C@@H](C)O [compound 315] (Isovaleryl-E(OMe)TH[Dip]PCCK([Ahx-X1])[β3hF][dK]-NH2; disulfide 6-7) | 10 to 100 nM |
| CC(C)CC(=O)N[C@@H](CCC(=O)O)C(=O)N[C@H](C(=O)N[C@@H](Cc1c[nH]cn1)C(=O)N[C@H](C(=O)N1CCC[C@H]1C(=O)N[C@H]1CSSC[C@@H](C(=O)N(C)[C@@H](CCCCNC(=O)COCCOCCNC(=O)COCCOCCNC(=O)[C@H](CN)NC(=O)CCCCCCCCCCCCCCCCC(=O)O)C(=O)N(C)[C@@H](Cc2ccccc2)C(=O)N[C@H](CCCCN)C(N)=O)N(C)C1=O)C(c1ccccc1)c1ccccc1)[C@@H](C)O [compound 266] (Isovaleryl-ETH[Dip]PC[NMeC][NMeK]([AEEA-AEEA-Dap-C18 diacid])[NMeF][dK]-NH2; disulfide 6-7) | 10 to 100 nM |

same assay, conditions: Table 6E; T47D internalization assay with MSA

| Structure (SMILES) | IC50 |
| --- | --- |
| CCCCCCCCCCCCCCCC(=O)NCC[N+](C)(C)CC(=O)NCCCC[C@@H](C(=O)N[C@H](C(N)=O)C(c1ccccc1)c1ccccc1)N(C)C(=O)[C@@H]1CSSC[C@H](NC(=O)[C@@H]2CCCN2C(=O)[C@@H](NC(=O)[C@H](Cc2cnc[nH]2)NC(=O)[C@H]([C@@H](C)O)N(C)C(=O)[C@H](CCC(=O)O)NC(=O)CC(C)C)C(c2ccccc2)c2ccccc2)C(=O)N1 [compound 169] (Isovaleryl-E[NMeT]H[Dip]PCC[NMeK](X5)[Dip]-NH2; disulfide 6-7) | 1 to 10 nM |
| CCCCCCCCCCCCCCCC(=O)NCCCCCC(=O)NCCCC[C@@H](C(=O)N[C@H](C(=O)N[C@H](CCCCN)C(N)=O)C(c1ccccc1)c1ccccc1)N(C)C(=O)[C@@H]1CSSC[C@H](NC(=O)[C@@H]2CCCN2C(=O)[C@@H](NC(=O)[C@H](Cc2cnc[nH]2)NC(=O)[C@@H](NC(=O)[C@H](CCO)NC(=O)CC(C)C)[C@@H](C)O)C(c2ccccc2)c2ccccc2)C(=O)N1 [compound 168] (Isovaleryl-[hSer]TH[Dip]PCC[NMeK]([Ahx-Palmitoyl])[Dip][dK]-NH2; disulfide 6-7) | 1 to 10 nM |
| CC(C)CC(=O)N[C@@H](CCC(=O)O)C(=O)N1CCC[C@H]1C(=O)N[C@@H](Cc1c[nH]cn1)C(=O)N[C@H](C(=O)N1CCC[C@H]1C(=O)N[C@H]1CSSC[C@@H](C(=O)N(C)[C@@H](CCCCNC(=O)CCCCCNC(=O)C[N+](C)(C)CCNC(=O)CCCCCCCCCCCCCCCCC(=O)O)C(=O)N[C@H](C(=O)N[C@H](CCCCN)C(N)=O)C(c2ccccc2)c2ccccc2)NC1=O)C(c1ccccc1)c1ccccc1 [compound 188] (Isovaleryl-EPH[Dip]PCC[NMeK]([Ahx-X1])[Dip][dK]-NH2; disulfide 6-7) | > 500 nM |
| CCCCCCCCCCCCCCCC(=O)NCCCCCC(=O)NCCCC[C@@H](C(=O)N[C@H](C(=O)N[C@H](CCCCN)C(N)=O)C(c1ccccc1)c1ccccc1)N(C)C(=O)[C@@H]1CSSC[C@H](NC(=O)[C@@H]2CCCN2C(=O)[C@@H](NC(=O)[C@H](Cc2cnc[nH]2)NC(=O)[C@H]([C@@H](C)O)N(C)C(=O)[C@H](CCC(=O)O)NC(=O)CC(C)C)C(c2ccccc2)c2ccccc2)C(=O)N1 [compound 173] (Isovaleryl-E[NMeT]H[Dip]PCC[NMeK]([Ahx-Palmitoyl])[Dip][dK]-NH2; disulfide 6-7) | 1 to 10 nM |
| CC(C)CC(=O)N[C@H]1CCC(=O)NCCCC[C@H](C(N)=O)NC(=O)[C@H](C(c2ccccc2)c2ccccc2)NC(=O)[C@H](CCCCNC(=O)CCCCCNC(=O)C[N+](C)(C)CCNC(=O)CCCCCCCCCCCCCCCCC(=O)O)N(C)C(=O)[C@@H]2CSSC[C@H](NC(=O)[C@@H]3CCCN3C(=O)[C@H](C(c3ccccc3)c3ccccc3)NC(=O)[C@H](Cc3cnc[nH]3)NC(=O)[C@H]([C@@H](C)O)NC1=O)C(=O)N2 [compound 193] (Isovaleryl-ETH[Dip]PCC[NMeK]([Ahx-X1])[Dip][dK]-NH2; lactam 1-10; disulfide 6-7) | 10 to 100 nM |
| COC(=O)CCCCCCCCCCCCCCCCC(=O)NCC[N+](C)(C)CC(=O)NCCCCCC(=O)NCCCC[C@H]1C(=O)NC(C(c2ccccc2)c2ccccc2)C(=O)N[C@@H](C(N)=O)CCCCNC(=O)CC[C@H](NC(=O)CC(C)C)C(=O)N[C@@H]([C@@H](C)O)C(=O)N[C@@H](Cc2c[nH]cn2)C(=O)N[C@@H](C(c2ccccc2)c2ccccc2)C(=O)N2CCC[C@H]2C(=O)N[C@H]2CSSC[C@H](NC2=O)C(=O)N1C (some centres unmarked) [compound 160] (Isovaleryl-ETH[Dip]PCC[NMeK]([Ahx-X13])[ξDip][dK]-NH2; lactam 1-10; disulfide 6-7) | 10 to 100 nM |
| CC(C)CC(=O)NC(CCC(=O)O)C(=O)NC(C(=O)NC(Cc1cnc[nH]1)C(=O)NC(C(=O)N1CCCC1C(=O)NC1CSCc2ccc(cc2)CSCC(C(=O)N(C)C(CCCCNC(=O)COCCOCCNC(=O)COCCOCCNC(=O)C(CN)NC(=O)CCCCCCCCCCCCCCCCC(=O)O)C(=O)NC(CC(=O)NC(CCCCN)C(N)=O)Cc2ccccc2)NC1=O)C(c1ccccc1)c1ccccc1)C(C)O (centres unmarked) [compound 218] | 10 to 100 nM |
| COCCOCCOCCOCCOCCOCCOCCOCCOCCOCCOCCOCCC(=O)NCCCC[C@@H](NC(=O)[C@@H](NC(=O)[C@H](CCCCNC(=O)COCCOCCNC(=O)COCCOCCNC(=O)C[N+](C)(C)CCNC(=O)CCCCCCCCCCCCCCCCC(=O)O)NC(=O)[C@@H]1CSSC[C@H](NC(=O)[C@@H]2CCCN2C(=O)[C@@H](NC(=O)[C@H](Cc2c[nH]cn2)NC(=O)[C@@H](NC(=O)[C@H](CCC(=O)O)NC(=O)CC(C)C)[C@@H](C)O)C(c2ccccc2)c2ccccc2)C(=O)N1)C(c1ccccc1)c1ccccc1)C(N)=O [compound 203] (Isovaleryl-ETH[Dip]PCCK([AEEA-AEEA-X1])[Dip][dK](CH3O(CH2CH2O)11CH2CH2CO)-NH2; disulfide 6-7) | 10 to 100 nM |
| CC(C)CC(=O)N[C@@H](CCC(=O)O)C(=O)N(C)[C@H](C(=O)N[C@@H](Cc1c[nH]cn1)C(=O)N[C@H](C(=O)N1CCC[C@H]1C(=O)N[C@H]1CSSC[C@@H](C(=O)N(C)[C@@H](CCCCNC(=O)CCCCCNC(=O)C[N+](C)(C)CCNC(=O)CCCCCCCCCCCCCCCCC(=O)O)C(=O)N[C@H](C(=O)N[C@H](CCCCN)C(N)=O)C(c2ccccc2)c2ccccc2)NC1=O)C(c1ccccc1)c1ccccc1)[C@@H](C)O [compound 190] (Isovaleryl-E[NMeT]H[Dip]PCC[NMeK]([Ahx-X1])[Dip][dK]-NH2; disulfide 6-7) | 100 to 500 nM |
| COC(=O)CC[C@H](NC(=O)CC(C)C)C(=O)N[C@H](C(=O)N[C@@H](Cc1c[nH]cn1)C(=O)N[C@H](C(=O)N1CCC[C@H]1C(=O)N[C@H]1CSSC[C@@H](C(=O)N[C@H](CCCCNC(=O)CCCCCNC(=O)C[N+](C)(C)CCNC(=O)CCCCCCCCCCCCCCCCC(=O)O)C(=O)N[C@H](C(=O)N[C@H](C(N)=O)C(C)(C)C)C(c2ccccc2)c2ccccc2)NC1=O)C(c1ccccc1)c1ccccc1)[C@@H](C)O [compound 212] (Isovaleryl-E(OMe)TH[Dip]PCC[dK]([Ahx-X1])[Dip][Tle]-NH2; disulfide 6-7) | 10 to 100 nM |
